The values below come from article PMC2990605 (British Journal of Cancer, 2010).

The test system of one data set is transformed cells. The arrangement: method as in Krige et al, 2008. The note with it: in vitro and in vivo experiments; ref Krige et al, 2008; cited from earlier work.
The conditions of data set [1]: cited from earlier work.
In data set [2] the test system is human promyelocytic leukaemia cell line HL-60. The arrangement: method as in Krige et al, 2008. As to conditions: ref Krige et al, 2008; cited from earlier work.
A further data set has as its system cancer cell lines. Set-up: method as in Jenkins et al, 2007; Moore et al, 2009. The note with it: wide range of cancer cell lines in vitro; ref Jenkins et al, 2007; Moore et al, 2009; cited from earlier work.
In data set [3] the test system is advanced solid malignancies. In words: Antitumour activity, Response Evaluation Criteria in Solid Tumors. The note with it: tosedostat with paclitaxel. In kind it is in vivo, patients. How it is done:
Response was evaluated according to Response Evaluation Criteria in Solid Tumors ([Therasse et al, 2000]) after every second cycle.

For the next data set, the system named is relapsed/refractory AML. The arrangement: method as in Ossenkoppele et al, 2009; Reid et al, 2009. As to conditions: tosedostat monotherapy, ref Ossenkoppele et al, 2009, Reid et al; cited from earlier work.
Data set [4] can be described thus: Dose-limiting toxicity and maximum tolerated dose of the paclitaxel/tosedostat combination. Type of data set: in vivo, patients. How it is done: The starting dose of CHR-2797 was 90 mg daily, below the MTD.
Toxicity was evaluated according to common toxicity criteria for adverse events (CTCAEv3.0). The MTD was defined as the dose level(s) at which at least two out of six patients developed DLT.

Entries after “also recorded” stand apart in the source; their conditions may differ.

For `CC(C)C[C@@H](C(=O)N[C@H](C(=O)OC1CCCC1)c1ccccc1)[C@H](O)C(=O)NO` [tosedostat], the selectivity result in the data set on transformed cells is given as “selectivity for transformed over nontransformed cells”. Besides, the effect on platelets entry in data set [1] (single agent dose escalation studies, ref Ossenkoppele et al, 2009, Reid et al) is recorded as “platelet suppressive effect”. Moreover, in data set [1] (single agent oral daily dosing, ref Reid et al, 2009), the “most commonly reported AEs” value is “fatigue, thrombocytopenia, peripheral oedema and diarrhoea”. Besides, in data set [1] (single agent tosedostat 320 mg, ref Reid et al, 2009), the “Dose-limiting toxicities, patients” value is recorded as “two of four patients”. The “MTD with single agent tosedostat” value in data set [1] (solid tumour patients treated for at least 28 days, oral daily, ref Reid et al, 2009) was 240 mg. Moreover, in data set [2], the “gene expression analysis, transcriptional response” value is given as “transcriptional response to the drug indicative of amino acid depletion”; the “phosphorylation of mTOR substrates” value is “inhibited”; the protein synthesis entry was “reduced”. The “combination with chemotherapeutic agents, antiproliferative effects” value in the data set with cancer cell lines is reported as “synergises”. For the same compound, the “response duration of PR” value in data set [3] (patient with malignant melanoma) is given as 7.2 months. Besides, the “response duration of PR” value in data set [3] (patient with squamous cell non-small-cell lung cancer) was 7.1 months. In addition, the “response duration of PR” value in data set [3] (patient with squamous-cell carcinoma of the oesophagus) is given as 1.5 months. The “stable disease lasting >3 months, patients” value in data set [3] was determined as 12. Moreover, the “Median (95% CI) duration of s.d.” value in data set [3] (12 patients) is reported as 5.6 (3–6.5) months. Also, in data set [3] (21 assessable patients), the “partial response, patients” value amounted to 3; the “stable disease, % of patients” value is reported as 57%; the “stable disease, patients” value came out at 12. The “partial response, % of patients” value in data set [3] (21 assessable patients, confirmed after ⩾4 weeks) turned out to be 14%. Also, in the data set on relapsed/refractory AML, the response rate is 31.4%. The “DLTs observed in the study” value in data set [4] (all cohorts, 22 patients, tosedostat with paclitaxel) is “only one DLT observed in 22 patients”. The DLT entry in data set [4] (cohort 5: tosedostat 180 mg combined with paclitaxel 175 mg m^−2, one patient, first 21 days) is “One DLT (grade 3 dyspnoea); also recorded: CTC grade 3 dyspnoea, with grade 2 fever and persistent grade 3 urinary tract infection”. Further, in data set [4] (cohort 6: 175 mg m^−2 paclitaxel, 240 mg tosedostat, three patients), the “grade 3/4 toxicity in dose-escalation phase” value is reported as “without any grade 3/4 toxicity”. For the same compound, in data set [4] (tosedostat 90–240 mg daily, paclitaxel 135–175 mg m^−2 every 3 weeks), the “MTD of tosedostat combined with paclitaxel” value was “No formal MTD was determined; also recorded: Formal MTD was never reached; also recorded: not reached”.
